This note sets out measurements from patent publication US11649220B2 (DEMOTECH.INC., priority 2018, dated 2023).

A short description of experiment [1]: In vitro free radical inhibition test (DPPH method). Particulars: 8 μL of 20 mmol/L compound in 1 mL DPPH 0.059 mg/mL ethanol, 60 min dark, 517 nm; for inhibition rate %: DPPH; for Relative inhibition ability on free radicals: inhibition rate of AGI1067 on DPPH defined as 100. From the text: 1. In Vitro Free Radical Inhibition Test (DPPH Method)
The single electron of DPPH radical has a strong absorption at […], and its alcohol solution is purple. In the presence of a free radical scavenger, the absorption of DPPH radical is weakened or disappeared for the reason that the free radical scavenger is paired with the single electron of DPPH radical, and the degree of discoloration is quantitatively related to the number of electrons DPPH radical receives. Therefore, a spectrophotometer can be used to quickly and quantitatively analyze the free radical scavenging rate of the compound.
1) 1 mL solution of DPPH in absolute ethanol (concentration: 0.059 mg/mL) was taken; 2) 8 μL of the compound to be tested (20 mmol/L) were added; 3) after mixing well, the resultant was kept in dark at room temperature for 60 minutes, 4) the absorbance of the sample at 517 nm was measured.
On the technique in general: Loss of DPPH colour is used to gauge radical scavenging.

Experiment [2] has as its system golden hamsters (60% high-fat food, STZ induced). In words: Golden hamster disease model, animal model induction group (16-week-old group): blood biochemical indexes and body weight. In kind it is in vivo. Particulars: for change rate of blood glucose %: 0.1 mL of 6.8 mg/mL DMSO solution + 0.25 mL whole milk by gavage once a day for 2 weeks; for change rate of body weight after deduction of DMSO blank %: DMSO blank deducted; for average body weight after administration/g / change of body weight/g / change rate of body weight %: after gavage once a day for 2 weeks; for HDL % / LDL % / total cholesterol % / triglyceride %: change rate, gavage once a day for 2 weeks. The method, then:
Animals and feed: 1) 8-week-old male golden hamsters with a body weight range of 100±5 g were selected; 2) 60% high-fat food; 3) 30% high-fat food; 4) general feed: NRC standard feed, containing 5% fat, total calories 4200 kcal/kg.
Animal model induction group (16-week-old group): 1) fed with 60% high-fat food for 2 weeks under standard environment; 2) STZ intraperitoneal injection twice every two days, 50 mg/kg each time; 3) After STZ induction, the golden hamsters were continuous fed for 1 week; 4) Blood was taken from the ocular venous plexus, and the initial body weight, blood glucose, total cholesterol, LDL-c, HDL-c and triglyceride were measured, and the golden hamsters were grouped in parallel according to animal biochemical indicators, 8 in each group; 5) Gavage of compounds: 0.1 mL of solution of compound (concentration: 6.8 mg/mL, DMSO solution) and 0.25 mL of whole milk were mixed evenly and administrated by gavage once a day for 2 weeks; 6) Blank control: 0.1 mL of DMSO and 0.25 mL of whole milk were mixed evenly and administrated by gavage once a day for 2 weeks; 7) Observation time: 14 days later, blood was taken from the ocular venous plexus, and the body weight, blood glucose, total cholesterol, LDL-c, HDL-c and triglyceride were measured.
Instruments: Shimadzu UV-1750 spectrophotometer, clinical determination kit (Changchun Huili Biotechnology Co., Ltd.)
Determination of blood glucose: glucose oxidase method, kit
Determination of total cholesterol (COD-PAP method), kit
Determination of low density lipoprotein cholesterol (direct method), kit
Determination of triglyceride (GP-PAP method)
Determination of high density lipoprotein (direct method), kit

For experiment [3], the system named is Malondialdehyde (MDA) in serum. As to the kind of experiment: In vivo anti-lipid oxidation experiment (serum MDA, TBA method). Set-up: inhibition rate %: concentration or dose not given beside the values. To be noted: MAD lipid peroxidation in vivo; for inhibition rate %: relative to solvent DMSO and Chow averages; for avarage value of OD: serum, TBA method, 532 nm. From the text: Experimental principle: Malondialdehyde (MDA) in liposome degradation products could condense with thiobarbituric acid (TBA) to form a red product which has a maximum absorption peak at 532 nm. The spectrophotometer was used to measure the relative absorption value to calculate the antioxidant value.
Reagents: Malondialdehyde (MDA) test kit (article number: A003-1, […], Nanjing Jiancheng), glacial acetic acid of analytically pure grade.
Reagent preparations: 1) Reagent I: Reagent 1 in the kit was taken out from the refrigerator and subjected to natural warming until a transparent liquid is obtained; 2) Reagent II: 170 mL of double-distilled water was added to each bottle and mixed; 3) Reagent III: A dry powder in the kit was dissolved in 60 mL of double-distilled water at 90 to 100° C. After the dry powder was dissolved totally, 30 mL of glacial acetic acid was added and kept in dark place; 4) Standard: 10 nmol/mL tetraethoxypropane.
Experimental procedures: 1) Blank tube: To 2 mL centrifuge tube were added anhydrous ethanol (70 μl), Reagent I (70 μl), Reagent II (0.8 mL) and Reagent III (0.8 mL) in sequence; 2) Standard tube: To 2 mL centrifuge tube were added standard (70 μl), Reagent I (70 μl), Reagent 11 (0.8 mL) and Reagent III (0.8 mL) in sequence; 3) Measuring tube: To 2 mL centrifuge tube were added the serum to be tested and physiological saline (the total volume of serum and physiological saline is 70 μl), Reagent I (70 μl), Reagent II (0.8 mL) and Reagent III (0.8 mL) in sequence; 4) Control tubes: all samples are set up with corresponding control tubes. To a 2 mL centrifuge tube were added the serum to be tested and physiological saline (the total volume of serum and physiological saline is 70 μl), Reagent I (70 μl), Reagent II (0.8 mL) and 50% glacial acetic acid (0.8 mL) in sequence.
After the above reagents were added, the mixture was mixed homogenously. Then the mixture was left in the water bath at 95° C. for 60 minutes. The sample was centrifuged at 4000 rpm for 10 minutes. The supernatant was taken for the measurement of the OD value.
Experimental data processing: the MDA content in serum was calculated as follows: MDA=(OD valuemeasured−OD valuecontrol)/OD valuestandard*concentration of the standard Inhibition rate %=100−(ODsample-average value−average value of Chow)/(average value of the solvent DMSO−average value of Chow)*100

Each structure is given as a SMILES string.

Turning to `CC(C)(Sc1cc(C(C)(C)C)c(O)c(C(C)(C)C)c1)Sc1cc(C(C)(C)C)c(O)c(C(C)(C)CCO)c1` [Compound 8, 2,6-di-tert-butyl-4-((2-((3-(tert-butyl)-4-hydroxy-5-(4-hydroxy-2-methylbutan-2-yl)phenyl)thio)propan-2-yl)thio)phenol], in experiment [1], the inhibition rate % worked out at 37.7% and the “Relative inhibition ability on free radicals” value was 86.5. In experiment [2], the “change rate of blood glucose %” value turned out to be 48.6%, the “change rate of body weight after deduction of DMSO blank %” value (“change rate … of DMSO blank %” below) is −6.1%, the “average body weight after administration/g” value (“average body weight” for short) was determined as 149.0 g and the “change of body weight/g” value is recorded as 5.3 g. In addition, in experiment [2], the “change rate of body weight %” value came to 3.7%, the HDL % was found to be 60.2%, the LDL % is listed as 11.1% and the total cholesterol % was −7.6%. Further, in experiment [2], the triglyceride % was 59.1%. In experiment [3], the inhibition rate % was 59.8% and the “avarage value of OD” value was found to be 6.98.

For the compound `CC(C)(Sc1cc(C(C)(C)C)c(O)c(C(C)(C)C)c1)Sc1cc(C(C)(C)C)c(O)c(C(C)(C)CCOC(=O)CCC(=O)O)c1` [Compound 11, 4-(3-(3-(tert-butyl)-5-((2-((3,5-di-tert-butyl-4-hydroxyphenyl)thio)propan-2-yl)thio)-2-hydroxyphenyl)-3-methylbutoxy)-4-oxobutanoic acid], in experiment [1], the inhibition rate % turned out to be 19.9% and the “Relative inhibition ability on free radicals” value amounted to 45.5. In experiment [2], the “change rate of blood glucose %” value was determined as 35.3%, the “change rate … of DMSO blank %” value is on record as −5.5%, the “average body weight” value is reported as 140.9 g and the “change of body weight/g” value is 5.8 g. In addition, in experiment [2], the “change rate of body weight %” value came to 4.3%, the HDL % is 49.7%, the LDL % is on record as −8.1% and the total cholesterol % is given as −0.4%. Further, in experiment [2], the triglyceride % came out at 8.7%. Moreover, in experiment [3], the inhibition rate % is recorded as 44.7% and the “avarage value of OD” value came to 7.56.

Regarding `CC(=O)Oc1ccccc1C(=O)OCCC(C)(C)c1cc(SC(C)(C)Sc2cc(C(C)(C)C)c(O)c(C(C)(C)C)c2)cc(C(C)(C)C)c1O` [Compound 13, 3-(3-(tert-butyl)-5-((2-((3,5-di-tert-butyl-4-hydroxyphenyl)thio)propan-2-yl)thio)-2-hydroxyphenyl)-3-methylbutyl 2-acetoxybenzoate], in experiment [1], the inhibition rate % worked out at 34.1% and the “Relative inhibition ability on free radicals” value was 78.2. Moreover, in experiment [2], the “change rate of blood glucose %” value was −3.9%, the “change rate … of DMSO blank %” value is −7.8%, the “average body weight” value is 136.6 g and the “change of body weight/g” value is recorded as 2.6 g. In experiment [2], the “change rate of body weight %” value turned out to be 2.0%, the HDL % is recorded as 57.9%, the LDL % is listed as −6.7% and the total cholesterol % is −9.0%. Further, the triglyceride % in experiment [2] is listed as −10.0%. In experiment [3], the inhibition rate % was 53.8% and the “avarage value of OD” value is 7.21.

`CC(C)(Sc1cc(C(C)(C)C)c(O)c(C(C)(C)C)c1)Sc1cc(C(C)(C)C)c(O)c(C(C)(C)CCNC(=O)CCCCC2CCSS2)c1` (stereo not drawn) [Compound 23, N-(3-(3-(tert-butyl)-5-((2-((3,5-di-tert-butyl-4-hydroxyphenyl)thio)propan-2-yl)thio)-2-hydroxyphenyl)-3-methylbutyl)-5-(1,2-dithiolan-3-yl)pentanamide]: in experiment [1], the inhibition rate % was 12.1% and the “Relative inhibition ability on free radicals” value is recorded as 27.7. Besides, in experiment [2], the “change rate of blood glucose %” value worked out at 19.5%, the “change rate … of DMSO blank %” value is reported as −3.8%, the “average body weight” value came out at 147.2 g and the “change of body weight/g” value amounted to 8.3 g. For the same compound, in experiment [2], the “change rate of body weight %” value is reported as 6.0%, the HDL % came to 102.1%, the LDL % is on record as −11.2% and the total cholesterol % is recorded as −6.4%. The triglyceride % in experiment [2] was found to be 21.9%. Moreover, in experiment [3], the inhibition rate % turned out to be 82.6% and the “avarage value of OD” value turned out to be 6.10.

Consider `CC(C)(C)C1=CC(=C2C=C(C(C)(C)C)C(=O)C(C(C)(C)C)=C2)C=C(C(C)(C)C)C1=O` [Compound 29, 3,3′,5,5′-tetra-tert-butyl-[1,1′-bi(cyclohexylidene)]-2,2′,5,5′-tetraene-4,4′-dione, reference compound], for which, in experiment [1], the inhibition rate % stood at 8.8% and the “Relative inhibition ability on free radicals” value is reported as 20.1. In experiment [3], the inhibition rate % turned out to be 7.9% and the “avarage value of OD” value came to 8.98.

With `CC(C)(Sc1cc(C(C)(C)C)c(O)c(C(C)(C)C)c1)Sc1cc(C(C)(C)C)c(OC(=O)CCC(=O)O)c(C(C)(C)C)c1` [Compound 31, 4-(2,6-di-tert-butyl-4-((2-((3,5-di-tert-butyl-4-hydroxyphenyl)thio)propan-2-yl)thio)phenoxy)-4-oxobutanoic acid, reference compound], in experiment [1], the inhibition rate % was 43.6% and the “Relative inhibition ability on free radicals” value is 100.0. For the same compound, in experiment [3], the inhibition rate % is 49.1% and the “avarage value of OD” value is on record as 7.39.
